# In patent publication US20050182122A1, “Method of treating abnormal cell growth using indolinone compounds” (priority 2003, published 2005):
# “And” between values parts separate entries of the source, which are not always exact repeats. Equal values may be shown once.
# Tests used:
# solid tumors = test: Example 3: solid tumor patients, antitumor activity; type: in vivo, human
# Description: (§1) The patients were characterized as follows: 15 male, 13 female; age range 33-78 years; median age 55 years; median PS 0; WHO PS, 0 (22 patients), 1 (3 patients), 2 (3 patients). The number of pretreatment regimens ranged from 0 to 9, with a median of 2. The tumors types (number of patients) were: renal cell carcinoma (4); neuroendocrine tumors (4); colorectal cancer (3); non-small cell lung cancer (2); mesotheliomas (2); uterine carcinoma (2); breast cancer (2); pancreas (2); angiosarcoma (2); esophagus (1); undifferentiated carcinoma of nasopharynx (1); parotid adenocarcinoma (1); melanoma (1); gastrointestinal stromal tumor (1). […] All other trials were dosed with flat doses (i.e., mg). All dosage amounts are free-base equivalents. A plus symbol (+) following the number of cycles indicates the patient was still on study at the date the data were summarized.
# primary or secondary AML = test: Example 2: AML patients, clinical activity by WHO criteria; type: in vivo, human; parameters: key to Best Response: NE: not evaluated; PR: partial response; SD: stable disease; PD: Progressive Disease; details: for Best Response: AML, one line per patient
# Procedure: (§2) Constitutively activating mutations of the receptor FLT3 are present in approximately 30% of patients with AML and correlate with poor prognosis. […] Two dose levels (50 and 75 mg) and 2 schedules (Group A: 4 weeks of treatment followed by a 14 day rest period; and Group B: 4 weeks of treatment followed by a 7 day rest period) were evaluated in 3 cohorts of patients. Flt3 genotyping for ITD and D835 mutations was performed to enable retrospective stratification. Correlative laboratory studies to assess inhibition of target phosphorylation, and modulation of signaling pathways regulating apoptosis and proliferation were performed by Western blot and immunohistochemistry analyses and FL expression and IHC were conducted.
# [1] = Example 1: metastatic renal cell carcinoma patients, adverse events; type: in vivo, human
# Description: (§3) Eligibility included measurable disease, ECOG performance status of 0 or 1, failure of one prior cytokine-based therapy due to disease progression or toxicity, and adequate cardiac function as defined by normal ejection fraction on MUGA or ECHO. Patients were excluded if they had significant cardiac events within the past 12 months or received more than one prior cytokine regimen.
# [2] = Example 2: AML patients, toxicities; type: in vivo, human
# Procedure: as §2
# [3] = test system: metastatic renal cell carcinoma (RCC); test: Example 1: metastatic renal cell carcinoma patients, best response by RECIST; type: in vivo, human
# Description: as §3
# [4] = Example 3: solid tumor patients, dose limiting toxicities; type: in vivo, human
# Description: as §1
# [5] = test system: bone marrow engraftment model; test: bone marrow engraftment model; type: in vivo; details: pre-clinical experiments
# FLT3-ITD xenograft tumor = FLT3-ITD xenograft tumor model; type: in vivo; details: pre-clinical experiments
# blood/plasma half life = type: in vivo
# Procedure: Administration of the compound of formula 1, or its active metabolite 2, in an effective dosing regimen, must take into account the long blood/plasma half lives of these two compounds, approximately 40 and 80 hours, respectively, as well as their safety profiles. Thus, there is a need for safe and therapeutically effective dosing regimens for administering the compounds of formula 1 and 2 to a mammal, including a human, for treating abnormal cell growth, such as cancer.
# FLT3 = test: Example 2: AML patients, FLT3 phosphorylation and expression (Western blot, immunohistochemistry); type: in vivo, human
# Procedure: as §2
# [6] = all dosing schedules, 23 evaluable
# [7] = 15 AML patients, 50 or 75 mg daily
# [8] = preliminary safety data N=44, 50 mg daily 4 weeks/2-week rest, mostly grades 1 and 2
# [9] = preliminary safety data N=44, without signs of pancreatitis
# [10] = 15 AML patients, 50 or 75 mg daily, 4 weeks treatment, 14 or 7 day rest, mainly grade 1-2
# [11] = 63 metastatic RCC patients, 50 mg daily orally 4 weeks, 2-week rest
smiles,measurement,setting,value
"CCN(CC)CCNC(=O)c1c(C)[nH]c(/C=C2\C(=O)Nc3ccc(F)cc32)c1C [5-(5-fluoro-2-oxo-1,2-dihydroindol-(3Z)-ylidenemethyl)-2,4-dimethyl-1H-pyrrole-3-carboxylic acid (2-diethylaminoethyl)-amide]",Tumor Progression,"solid tumors; 50 mg Q2D, 3 patients",3
same,Tumor Response (#),"solid tumors; 50 mg Q2D, 3 patients",0
same,Tumor Stabilization (#),"solid tumors; 50 mg Q2D, 3 patients",0
same,"Tumor Stabilization, Time",solid tumors; 50 mg QD,8 months
same,Tumor Progression,"solid tumors; 50 mg QD, 6 patients",5
same,Tumor Response (#),"solid tumors; 50 mg QD, 6 patients",0
same,Tumor Stabilization (#),"solid tumors; 50 mg QD, 6 patients",1
same,Tumor Progression,"solid tumors; 75 mg QD, 9 patients",0
same,Tumor Response (#),"solid tumors; 75 mg QD, 9 patients",3
same,Tumor Stabilization (#),"solid tumors; 75 mg QD, 9 patients",2
same,"Tumor Stabilization, Time","solid tumors; 75 mg QD, one value per patient",4 months and 5 months
same,Tumor Progression,"solid tumors; 100 mg Q2D, 1 patient",0
same,Tumor Response (#),"solid tumors; 100 mg Q2D, 1 patient",1
same,Tumor Stabilization (#),"solid tumors; 100 mg Q2D, 1 patient",0
same,"Tumor Stabilization, Time",solid tumors; 100 mg QD,6 months
same,Tumor Progression,"solid tumors; 100 mg QD, 3 patients",0
same,Tumor Response (#),"solid tumors; 100 mg QD, 3 patients",2
same,Tumor Stabilization (#),"solid tumors; 100 mg QD, 3 patients",1
same,"Tumor Stabilization, Time",solid tumors; 150 mg QD,3 months
same,Tumor Progression,"solid tumors; 150 mg QD, 1 patient",0
same,Tumor Response (#),"solid tumors; 150 mg QD, 1 patient",0
same,Tumor Stabilization (#),"solid tumors; 150 mg QD, 1 patient",1
same,"Tumor Progression, totals",solid tumors; [6],8/23
same,"Tumor Response (#), totals",solid tumors; [6],6/23
same,"Tumor Stabilization (#), totals",solid tumors; [6],5/23
same,evidence of clinical activity of short duration by WHO criteria,primary or secondary AML; [7],7 patients
same,"morphologic response (less than 5% blasts in bone marrow, absence of blasts in peripheral blood), number of patients",primary or secondary AML; [7],1
same,"partial responses (reduction of blasts by more than 50% in blood and bone marrow), number of patients",primary or secondary AML; [7],6
same,Best Response,"primary or secondary AML; 50 mg daily, schedule 4/1 weeks treatment/rest",SD (3×) and PR (2×)
same,Best Response,"primary or secondary AML; 50 mg daily, schedule 4/2 weeks treatment/rest",PD (3×) and PR (3×) and Morph. R
same,Best Response,"primary or secondary AML; 75 mg daily, schedule 4/2 weeks treatment/rest",PR
same,"rebound of blasts during the treatment-free (rest) period, patients",primary or secondary AML; of the 7 patients with clinical activity,2
same,responding patients with mutated FLT3 (ITD or D835),primary or secondary AML; of the responding patients,Three
same,taken off study for toxicity,[1]; 63 metastatic RCC patients,8 patients
same,Grade 3 event: anemia,[1]; preliminary safety data N=44,5%
same,Grade 3 event: leukocytopenia,[1]; preliminary safety data N=44,5%
same,Grade 3 event: lymphopenia,[1]; preliminary safety data N=44,32%
same,Grade 3 event: neutropenia,[1]; preliminary safety data N=44,9%
same,grade 3 thrombocytopenia,[1]; preliminary safety data N=44,no patients
same,"adverse event constipation, frequency",[1]; [8],34%
same,"adverse event diarrhea, frequency",[1]; [8],46%
same,"adverse event dyspepsia, frequency",[1]; [8],30%
same,"adverse event fatigue/asthenia, frequency",[1]; [8],67%
same,"adverse event nausea, frequency",[1]; [8],50%
same,"adverse event stomatitis, frequency",[1]; [8],43%
same,Grade 3 event: elevated amylase,[1]; [9],9%
same,Grade 3 event: elevated lipase,[1]; [9],23%
same,decreases in left ventricular ejection fraction >20% without clinical symptoms,[1]; taken off the study,Two
same,"Grade 3 drug related fatigue, patients",[2]; [7],20%
same,toxicity: diarrhea,[2]; [10],13%
same,toxicity: fatigue,[2]; [10],27%
same,toxicity: nausea,[2]; [10],33%
same,toxicity: vomiting,[2]; [10],13%
same,"dose limiting toxicity, fatigue grade 4 (number)",[2]; at 75 mg,One
same,taken off study for PD,[3]; 63 metastatic RCC patients,Twelve
same,"Best response by RECIST: confirmed partial, patients",[3]; [11],16%
same,"Best response by RECIST: progression, patients",[3]; [11],27%
same,"Best response by RECIST: stable, patients",[3]; [11],41%
same,"reduction of unidimensional measurement of at least 30%, awaiting confirmation of response status, patients",[3]; [11],10%
same,partial responders remaining progression free,"[3]; of 10 patients with partial response, median follow-up of 4 months from start of therapy",9
same,partial responders who progressed,"[3]; of 10 patients with partial response, progressed at 5 months",1 patient
same,patients with dose limiting toxicities at cycle 1,[4]; 50 mg daily patients,2 of 9
same,dose limiting toxicity grade 3 edema,"[4]; 50 mg daily patients, cycle 1",1 patient
same,dose limiting toxicity grade 4 thrombocytopenia,"[4]; 50 mg daily patients, cycle 1",1 patient
same,patients with dose limiting toxicities at cycle 1,[4]; 75 mg daily patients,5 of 11
same,dose limiting toxicity grade 3 asthenia,"[4]; 75 mg daily patients, cycle 1",3 patients
same,dose limiting toxicity grade 3 hypertension,"[4]; 75 mg daily patients, cycle 1",1 patient
same,dose limiting toxicity grade 5 tumor necrosis,"[4]; 75 mg daily patients, cycle 1",1 patient
same,patients with dose limiting toxicities at cycle 1,[4]; 100 mg daily patients,2 of 3
same,dose limiting toxicity grade 3 asthenia,"[4]; 100 mg daily patients, cycle 1",1 patient
same,dose limiting toxicity grade 3 hypertension,"[4]; 100 mg daily patients, cycle 1",1 patient
same,course of asthenia,[4]; cycle 1,progressively from grade 1 at week 1 to grade 3-4 at week 4
same,main dose-limiting toxicity,"[4]; doses greater than or equal to 50 mg, appeared during cycle 1",Asthenia
same,rest period required for reversal of grade 3 asthenia,"[4]; human, in vivo",2-4 week
same,dose limiting toxicity at cycle 1,[4]; the 150 mg daily patient,grade 3 asthenia
"CCN(CC)CCNC(=O)c1c(C)[nH]c(/C=C2\C(=O)Nc3ccc(F)cc32)c1C [Compound 1, 5-(5-fluoro-2-oxo-1,2-dihydroindol-(3Z)-ylidenemethyl)-2,4-dimethyl-1H-pyrrole-3-carboxylic acid (2-diethylaminoethyl)-amide]",efficacy in bone marrow engraftment model,[5],dose-dependent efficacy
same,efficacy in FLT3-ITD xenograft tumor model,FLT3-ITD xenograft tumor,dose-dependent efficacy
same,duration of partial response,"primary or secondary AML; one patient with FLT3 ITD mutation, Group B (50 mg daily, 4 weeks treatment/7 day rest)",4 month
same,tolerability in advanced AML population,[2]; 50 mg dose,tolerable
same,half-life,blood/plasma half life,~40 h
same,target inhibition,FLT3; 50 mg dose,consistently observed
same,time to decreased FLT3 protein expression,"FLT3; patient with FLT3 ITD mutation, Group B, consistent with decreasing blast counts",≤ 8 days
same,FLT3 phosphorylation after administration,"FLT3; patient with FLT3 ITD mutation, Group B, similar in 2 other FLT3 mutant patients",inhibition of FLT3 phosphorylation
"CCNCCNC(=O)c1c(C)[nH]c(/C=C2\C(=O)Nc3ccc(F)cc32)c1C [Compound 2, 5-(5-fluoro-2-oxo-1,2-dihydroindol-(3Z)-ylidenemethyl)-2,4-dimethyl-1H-pyrrole-3-carboxylic acid (2-ethylaminoethyl)-amide]",half-life,blood/plasma half life,~80 h
